Test results from article PMC11840923, “Kinetic and Thermodynamic Characterization of Human 4-Oxo-L-proline Reductase Catalysis” (Biochemistry, 2025).

Key:
[1] = molecular target: T1, 4-oxo-L-proline reductase (HsBDH2) (Homo sapiens, UniProt Q9BUT1); assay: ITC at […] °C, pH […] (number of sites fixed at one); also DSF; type: binding
T1 construct: gene BDH2

[2] = molecular target: T1, 4-oxo-L-proline reductase (HsBDH2); assay: ITC at […] °C, pH […] ([…] stoichiometry); also DSF and stopped-flow koff; type: binding

T1 sequence (Q9BUT1 whole entry): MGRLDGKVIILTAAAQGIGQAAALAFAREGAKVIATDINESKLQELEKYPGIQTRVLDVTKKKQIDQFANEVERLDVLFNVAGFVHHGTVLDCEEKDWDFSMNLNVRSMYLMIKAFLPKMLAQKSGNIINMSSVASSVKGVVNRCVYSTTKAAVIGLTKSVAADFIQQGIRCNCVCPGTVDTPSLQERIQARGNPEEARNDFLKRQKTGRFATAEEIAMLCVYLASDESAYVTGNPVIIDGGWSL

Compound	Kd [1]	Kd [2]
NC(=O)c1ccc[n+]([C@@H]2O[C@H](COP(=O)([O-])OP(=O)(O)OC[C@H]3O[C@@H](n4cnc5c(N)ncnc54)[C@H](O)[C@@H]3O)[C@@H](O)[C@H]2O)c1 [NAD^+]	29 µM	
NC(=O)C1=CN([C@@H]2O[C@H](COP(=O)(O)OP(=O)(O)OC[C@H]3O[C@@H](n4cnc5c(N)ncnc54)[C@H](O)[C@@H]3O)[C@@H](O)[C@H]2O)C=CC1 [NADH]		0.48 µM
